Here are results for 8 compounds from ChEMBL document CHEMBL4007412, “Design, Synthesis, and Biological Evaluation of Mitochondria-Targeted Flavone-Naphthalimide-Polyamine Conjugates with Antimetastatic Activity” (J Med Chem, 2017).

One assay deals with SMMC-7721. The assay can be described thus: Cytotoxicity against human SMMC7721 cells assessed as cell growth inhibition after 48 hrs by MTT assay. In kind it is functional, cell-based. The following applies: SMMC-7721, 48 h. Background: Tetrazolium dyes change colour on reduction, which living cells bring about.
For a further assay, the system named is HepG2. The assay can be described thus: Cytotoxicity against human HepG2 cells assessed as cell growth inhibition after 48 hrs by MTT assay. In kind it is functional, cell-based. The following applies: HepG2, 48 h.
Assay [1] is described as follows: Cytotoxicity against human QSG7701 cells assessed as cell growth inhibition after 48 hrs by MTT assay. The format is cell-based. The following applies: QSG7701, 48 h.
The subject of assay [2] is H22. The assay is described as follows: Antitumor activity against […] xenografted in Kunming mouse assessed as suppression of tumor weight at 5 mg/kg, iv dosed every day starting from day 8 after tumor cell inoculation. In kind it is functional. A general note: A xenograft is tissue or cells of one species grown in another, often human tumour cells in immunodeficient mice.

Assay [3] concerns H22. The assay can be described thus: Antimetastatic activity against […] xenografted in pulmonary metastasis Kunming mouse model assessed as reduction in tumor metastatic nodules at 5 mg/kg, iv dosed every day starting from day 8 after tumor cell inoculation. The format is functional. Further details: scale not given: the % may be the effect or the level left.

What is called IC50 is the concentration that inhibits the measured activity by half. Take `O=C1c2cccc3c(-c4cc(=O)c5ccccc5o4)ccc(c23)C(=O)N1CCCN1CCOCC1`: the IC50 with SMMC-7721 is 31.6 µM; with HepG2, more than 50 µM; in assay [1], 47.7 µM.
Consider `CN(C)CCN1C(=O)c2cccc3cc(N)cc(c23)C1=O` [AMONAFIDE], for which the IC50 in the assay on SMMC-7721 turned out to be 9.95 µM; in the assay on HepG2, 10.1 µM; in assay [1], 7.84 µM. The Activity stood at 48.1% with H22 [2] and 41.4% in the assay on H22 [3].
As to `CCCCN(CCCC)CCCN1C(=O)c2cccc3c(-c4cc(=O)c5ccccc5o4)ccc(c23)C1=O`, the IC50 in the assay with SMMC-7721 is 16.5 µM; in the assay with HepG2, 18.9 µM; in assay [1] it was more than 50 µM.
In the case of `O=C1c2cccc3c(-c4cc(=O)c5ccccc5o4)ccc(c23)C(=O)N1CCCCN1CCNCC1`, the IC50 in the assay on SMMC-7721 was 16.6 µM; with HepG2 it was 15.5 µM; in assay [1], 16.9 µM.
As to `NCCCNCCCNCCCN1C(=O)c2cccc3c(-c4cc(=O)c5ccccc5o4)ccc(c23)C1=O`, the IC50 in the assay with SMMC-7721 was 11.3 µM; with HepG2, 14.7 µM; in assay [1], 17.4 µM.
With `CCCCNCCCCN1C(=O)c2cccc3c(-c4cc(=O)c5ccccc5o4)ccc(c23)C1=O`, the IC50 was 10.9 µM with SMMC-7721, 10.1 µM in the assay with HepG2 and 16.1 µM in assay [1].
With `NCCCCNCCCN1C(=O)c2cccc3c(-c4cc(=O)c5ccccc5o4)ccc(c23)C1=O`, the IC50 in the assay with SMMC-7721 was found to be 11.1 µM; with HepG2 it was 9.84 µM; in assay [1] it was 41.8 µM.
With `O=C1c2cccc3c(-c4cc(=O)c5ccccc5o4)ccc(c23)C(=O)N1CCCN1CCNCC1`, the results for the IC50 (in the assay on SMMC-7721; in the assay on HepG2; in assay [1]) were 43.5 µM, more than 50 µM and 34.7 µM, respectively.
